For this experiment, the system named is Primary human foreskin fibroblasts (BJ, CCD1079Sk, HFF). The experiment is classed as cell-based. The settings on record: 2 μM; for luciferase expression after transient treatment: BJ and CCD1079SK.

The structures appear in SMILES notation. Read-outs that look alike come from different tables or passages of the source.

This is an account of results in patent US20140030808A1, “Method for Cellular RNA Expression” (BIONTECH AG, priority 2010, published 2014).

Turning to `Nc1ncc2[nH]cnc2n1` [2-aminopurine], the “luciferase expression after transient treatment” value by setting is: (7 h incubation period) “did not results in a significant increase of luciferase expression”; (24 h treatment) “rapidly reversed after removal of the inhibitors”; (48 h treatment) “less efficient than a permanent treatment”. Moreover, under “permanent inhibition”, the “duration of high luciferase expression levels” value turned out to be 5 days.
